Measurements reported in patent US9315505B2, “Heterocyclic compounds and uses thereof” (INTELLIKINE LLC, priority 2009, dated 2016).

Columns and labels:
[1] = molecular target: T1, PI3K δ (Homo sapiens, UniProt O00329); test: In vitro IC50, PI3K δ (p110δ/p85α inhibition assay); type: biochemical; settings: in vitro kinase assay; read-out: IC50(nM) PI3K δ
T1 construct: purchased Upstate
Protocol: (§1) IC50 values are measured using either a standard TLC assay for lipid kinase activity (described below) or a high-throughput membrane capture assay. Kinase reactions are performed by preparing a reaction mixture containing kinase, inhibitor (2% DMSO final concentration), buffer (25 mM HEPES, pH 7.4, 10 mM MgCl2), and freshly sonicated phosphatidylinositol (100 μg/ml). Reactions are initiated by the addition of ATP containing 10 μCi of γ-32P-ATP to a final concentration 10 or 100 μM and allowed to proceed for 5 minutes at room temperature. For TLC analysis, reactions are then terminated by the addition of 105 μl 1N HCl followed by 160 μl CHCl3:MeOH (1:1). The biphasic mixture is vortexed, briefly centrifuged, and the organic phase is transferred to a new tube using a gel loading pipette tip precoated with CHCl3. This extract is spotted on TLC plates and developed for 3-4 hours in a 65:35 solution of n-propanol:1M acetic acid. The TLC plates are then dried, exposed to a phosphorimager screen (Storm, Amersham), and quantitated.
(§2) Other commercial kits or systems for assaying PI3-K activities are available. The commercially available kits or systems can be used to screen for inhibitors and/or agonists of PI3-Ks including but not limited to PI 3-Kinase α, β, δ, and γ. An exemplary system is PI 3-Kinase (human) HTRF™ Assay from Upstate. […] Briefly, the assay is a time resolved FRET assay that indirectly measures PIP3 product formed by the activity of a PI3-K. The kinase reaction is performed in a microtitre plate (e.g., a 384 well microtitre plate). The total reaction volume is approximately 20 ul per well. In the first step, each well receives 2 ul of test compound in 20% dimethylsulphoxide resulting in a 2% DMSO final concentration. Next, approximately 14.5 ul of a kinase/PIP2 mixture (diluted in 1× reaction buffer) is added per well for a final concentration of 0.25-0.3 ug/ml kinase and 10 uM PIP2. The plate is sealed and incubated for 15 minutes at room temperature. To start the reaction, 3.5 ul of ATP (diluted in 1× reaction buffer) is added per well for a final concentration of 10 uM ATP. The plate is sealed and incubated for 1 hour at room temperature. The reaction is stopped by adding 5 ul of Stop Solution per well and then 5 ul of Detection Mix is added per well. The plate is sealed, incubated for 1 hour at room temperature, and then read on an appropriate plate reader. Data is analyzed and IC50s are generated using GraphPad Prism 5.

[2] = molecular target: T2, PI3K γ (Homo sapiens, UniProt P48736); test: In vitro IC50, PI3K γ (p110γ inhibition assay); type: biochemical; settings: in vitro kinase assay
T2 construct: purchased Sigma
Protocol: as §1, with “Class I PI3-Ks can be either purchased (p110α/p85α, p110β/p85α, p110δ/p85α from Upstate, and p110γ from Sigma) or expressed as previously described (Knight et al., 2004). IC50” for “IC50”, “quantitated. For each compound, kinase activity is measured at 10-12 inhibitor concentrations representing two-fold dilutions from the highest concentration tested (typically, 200 μM).” for “quantitated.”
as §2

[3] = molecular target: T3, PI3K α (Homo sapiens, UniProt P42336); test: In vitro IC50, PI3K α (p110α/p85α inhibition assay); type: biochemical; settings: in vitro kinase assay; read-out: IC50(nM) PI3K α
T3 construct: purchased Upstate
Protocol: as §1, §2

[4] = test system: Balb/c splenic B cells; test: B cell activation and proliferation assay (Alamar Blue); type: cell-based; settings: Mus musculus, read-out: B cell proliferation EC50
Protocol: The ability of one or more subject compounds to inhibit B cell activation and proliferation is determined according to standard procedures known in the art. For example, an in vitro cellular proliferation assay is established that measures the metabolic activity of live cells. The assay is performed in a 96 well microtiter plate using Alamar Blue reduction. Balb/c splenic B cells are purified over a Ficoll-Paque™ PLUS gradient followed by magnetic cell separation using a MACS B cell Isolation Kit (Miletenyi). Cells are plated in 90 ul at 50,000 cells/well in B Cell Media (RPMI+10% FBS+Penn/Strep+50 uM bME+5 mM HEPES). A compound disclosed herein is diluted in B Cell Media and added in a 10 ul volume. Plates are incubated for 30 min at 37 C and 5% CO2 (0.2% DMSO final concentration). A 50 ul B cell stimulation cocktail is then added containing either 10 ug/ml LPS or 5 ug/ml F(ab′)2 Donkey anti-mouse IgM plus 2 ng/ml recombinant mouse IL4 in B Cell Media. Plates are incubated for 72 hours at 37° C. and 5% CO2. A volume of 15 uL of Alamar Blue reagent is added to each well and plates are incubated for 5 hours at 37 C and 5% CO2. Alamar Blue fluoresce is read at 560Ex/590Em, and IC50 or EC50 values are calculated using GraphPad Prism 5.

T2 sequence (P48736 whole entry): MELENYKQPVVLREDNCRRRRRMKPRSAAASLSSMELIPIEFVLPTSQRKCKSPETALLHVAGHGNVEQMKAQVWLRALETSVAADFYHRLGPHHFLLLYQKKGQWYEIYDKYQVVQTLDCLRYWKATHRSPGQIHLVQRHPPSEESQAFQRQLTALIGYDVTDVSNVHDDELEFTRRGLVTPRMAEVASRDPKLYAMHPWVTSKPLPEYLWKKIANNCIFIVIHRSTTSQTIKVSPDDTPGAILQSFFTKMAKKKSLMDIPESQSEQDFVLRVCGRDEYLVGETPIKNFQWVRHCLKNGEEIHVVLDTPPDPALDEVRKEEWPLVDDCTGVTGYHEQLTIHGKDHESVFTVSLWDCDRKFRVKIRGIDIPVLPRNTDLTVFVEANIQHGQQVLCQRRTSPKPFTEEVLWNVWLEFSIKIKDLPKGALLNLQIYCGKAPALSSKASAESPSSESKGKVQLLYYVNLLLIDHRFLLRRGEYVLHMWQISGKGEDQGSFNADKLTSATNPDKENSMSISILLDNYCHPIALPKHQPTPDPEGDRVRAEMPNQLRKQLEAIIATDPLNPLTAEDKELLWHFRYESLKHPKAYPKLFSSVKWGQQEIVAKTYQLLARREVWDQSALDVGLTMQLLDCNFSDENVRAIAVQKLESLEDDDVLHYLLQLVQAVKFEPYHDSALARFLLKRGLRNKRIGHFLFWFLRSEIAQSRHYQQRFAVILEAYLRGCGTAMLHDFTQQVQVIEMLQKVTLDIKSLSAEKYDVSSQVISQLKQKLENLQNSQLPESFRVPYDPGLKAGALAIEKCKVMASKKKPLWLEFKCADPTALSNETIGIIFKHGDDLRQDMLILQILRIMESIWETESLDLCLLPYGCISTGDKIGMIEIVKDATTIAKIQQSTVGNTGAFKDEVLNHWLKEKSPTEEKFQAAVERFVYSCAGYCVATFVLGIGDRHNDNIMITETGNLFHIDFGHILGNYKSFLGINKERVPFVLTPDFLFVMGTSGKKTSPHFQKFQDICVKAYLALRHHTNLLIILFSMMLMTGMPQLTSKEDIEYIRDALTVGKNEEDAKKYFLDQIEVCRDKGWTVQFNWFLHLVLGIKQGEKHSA
T3 sequence (P42336 whole entry): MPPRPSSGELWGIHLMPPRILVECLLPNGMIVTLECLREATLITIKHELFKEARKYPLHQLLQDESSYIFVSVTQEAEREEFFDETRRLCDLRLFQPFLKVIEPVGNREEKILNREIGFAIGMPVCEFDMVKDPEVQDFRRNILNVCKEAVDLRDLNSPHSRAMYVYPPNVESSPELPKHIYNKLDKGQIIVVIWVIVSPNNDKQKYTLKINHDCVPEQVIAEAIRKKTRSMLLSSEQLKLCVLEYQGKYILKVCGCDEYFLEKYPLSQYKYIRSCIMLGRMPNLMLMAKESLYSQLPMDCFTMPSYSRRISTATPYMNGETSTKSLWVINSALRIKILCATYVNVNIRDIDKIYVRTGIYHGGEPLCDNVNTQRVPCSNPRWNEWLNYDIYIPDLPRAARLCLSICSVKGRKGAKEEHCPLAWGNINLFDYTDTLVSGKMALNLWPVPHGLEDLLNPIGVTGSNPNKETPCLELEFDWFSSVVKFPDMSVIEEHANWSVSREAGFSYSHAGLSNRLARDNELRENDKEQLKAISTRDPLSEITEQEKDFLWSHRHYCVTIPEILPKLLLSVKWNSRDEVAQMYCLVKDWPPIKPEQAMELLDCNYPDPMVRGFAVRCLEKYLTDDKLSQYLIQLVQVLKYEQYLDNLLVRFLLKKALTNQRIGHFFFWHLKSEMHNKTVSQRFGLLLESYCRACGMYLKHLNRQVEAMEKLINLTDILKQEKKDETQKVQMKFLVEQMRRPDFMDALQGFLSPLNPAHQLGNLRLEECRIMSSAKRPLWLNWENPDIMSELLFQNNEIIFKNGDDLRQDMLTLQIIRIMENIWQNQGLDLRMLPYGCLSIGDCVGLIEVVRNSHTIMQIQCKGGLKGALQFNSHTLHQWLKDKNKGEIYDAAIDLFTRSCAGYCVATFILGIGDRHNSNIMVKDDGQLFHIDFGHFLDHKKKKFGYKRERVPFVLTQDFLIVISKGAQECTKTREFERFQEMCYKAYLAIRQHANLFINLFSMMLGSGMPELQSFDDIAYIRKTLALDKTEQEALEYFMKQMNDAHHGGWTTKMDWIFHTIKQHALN
T3 sequence (P27986 whole entry partner): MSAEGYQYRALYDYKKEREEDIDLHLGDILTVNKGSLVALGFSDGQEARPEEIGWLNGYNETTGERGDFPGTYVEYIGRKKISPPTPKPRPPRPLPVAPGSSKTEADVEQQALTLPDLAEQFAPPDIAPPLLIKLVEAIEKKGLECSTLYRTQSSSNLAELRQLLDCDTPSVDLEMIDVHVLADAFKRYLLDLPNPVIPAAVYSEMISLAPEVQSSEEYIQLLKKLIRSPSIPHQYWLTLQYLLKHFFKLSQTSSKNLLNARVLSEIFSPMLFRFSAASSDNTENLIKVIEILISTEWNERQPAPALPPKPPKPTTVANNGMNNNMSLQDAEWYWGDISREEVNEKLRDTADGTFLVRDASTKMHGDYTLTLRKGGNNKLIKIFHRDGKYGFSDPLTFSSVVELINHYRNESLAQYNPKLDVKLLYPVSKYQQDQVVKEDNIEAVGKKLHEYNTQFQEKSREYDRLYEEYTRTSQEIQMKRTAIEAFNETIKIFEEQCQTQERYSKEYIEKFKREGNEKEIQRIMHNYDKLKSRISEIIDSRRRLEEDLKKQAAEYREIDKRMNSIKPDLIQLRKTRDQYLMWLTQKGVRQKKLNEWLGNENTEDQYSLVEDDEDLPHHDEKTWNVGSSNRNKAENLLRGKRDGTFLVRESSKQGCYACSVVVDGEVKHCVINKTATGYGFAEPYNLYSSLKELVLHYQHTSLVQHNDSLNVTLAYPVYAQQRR
T1 sequence (O00329 whole entry): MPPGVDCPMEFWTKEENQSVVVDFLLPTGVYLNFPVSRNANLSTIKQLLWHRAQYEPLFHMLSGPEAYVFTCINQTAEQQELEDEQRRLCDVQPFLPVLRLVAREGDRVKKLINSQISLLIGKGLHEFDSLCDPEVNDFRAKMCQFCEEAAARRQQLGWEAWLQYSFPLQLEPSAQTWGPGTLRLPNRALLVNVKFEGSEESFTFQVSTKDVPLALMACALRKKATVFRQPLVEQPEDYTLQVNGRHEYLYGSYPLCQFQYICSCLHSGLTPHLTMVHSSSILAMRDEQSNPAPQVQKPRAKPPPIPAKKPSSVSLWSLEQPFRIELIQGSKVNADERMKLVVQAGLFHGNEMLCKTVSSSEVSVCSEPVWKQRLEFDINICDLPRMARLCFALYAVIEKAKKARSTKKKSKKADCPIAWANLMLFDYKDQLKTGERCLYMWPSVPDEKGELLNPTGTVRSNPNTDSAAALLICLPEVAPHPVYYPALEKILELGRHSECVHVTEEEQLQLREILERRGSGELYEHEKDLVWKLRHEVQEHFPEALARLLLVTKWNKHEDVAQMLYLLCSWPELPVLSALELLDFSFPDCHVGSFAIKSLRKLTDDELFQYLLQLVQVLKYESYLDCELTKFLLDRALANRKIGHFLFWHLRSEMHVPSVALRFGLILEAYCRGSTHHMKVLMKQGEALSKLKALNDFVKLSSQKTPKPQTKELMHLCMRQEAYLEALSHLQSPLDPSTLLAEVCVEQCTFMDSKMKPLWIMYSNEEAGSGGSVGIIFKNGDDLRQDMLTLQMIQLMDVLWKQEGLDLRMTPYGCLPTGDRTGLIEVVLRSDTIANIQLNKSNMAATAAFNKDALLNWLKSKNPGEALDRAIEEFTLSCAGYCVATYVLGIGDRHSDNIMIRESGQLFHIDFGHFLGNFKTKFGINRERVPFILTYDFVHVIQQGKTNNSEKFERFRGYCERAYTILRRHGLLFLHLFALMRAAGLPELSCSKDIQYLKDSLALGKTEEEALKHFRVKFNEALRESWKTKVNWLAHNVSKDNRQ
T1 sequence (P27986 whole entry partner): as the sequence (P27986 whole entry partner) above

| IC50 [1] | IC50 [2] | IC50 [3] | Structure (SMILES) | EC50 [4] |
| --- | --- | --- | --- | --- |
| < 100 nM | > 10000 nM | > 10000 nM | Cc1cccc2cc(C(C)Nc3ncnc4[nH]cnc34)nc(CCN3CCN(C)CC3)c12 (centres unmarked) [Compound 20] | < 0.1 µM |
| < 100 nM | < 1000 nM | < 1000 nM | Cc1cccc2cc(Cn3nc(-c4ccc5oc(N)nc5c4)c4c(N)ncnc43)nc(CCN3CCN(C)CC3)c12 [Compound 25] | < 0.1 µM |
| < 100 nM | < 100 nM | < 1000 nM | Cc1cccc2cc(Cn3nc(-c4ccc5oc(N)nc5c4)c4c(N)ncnc43)nc(N3CCCC3)c12 [Compound 26] | < 1 µM |
| < 100 nM | < 100 nM | < 100 nM | Cc1cccc2cc(Cn3nc(-c4ccc5nc(N)sc5c4)c4c(N)ncnc43)nc(OC(C)C)c12 [Compound 31] | < 1 µM |
| < 1000 nM | > 10000 nM | > 10000 nM | CC(Nc1ncnc2[nH]cnc12)c1cc2ccccc2c(OC2CCN(C(C)C)CC2)n1 (centres unmarked) [Compound 35] | < 0.1 µM |
| < 100 nM | < 10000 nM | < 10000 nM | Cc1cccc2cc(C(C)Nc3ncnc4[nH]cnc34)nc(CCN3CCN(S(C)(=O)=O)CC3)c12 (centres unmarked) [Compound 50] | < 0.1 µM |
| < 1000 nM | > 10000 nM | > 10000 nM | CC(Nc1ncnc2[nH]cnc12)c1cc2cccc(Cl)c2c(OC2CCN(S(C)(=O)=O)CC2)n1 (centres unmarked) [Compound 54] | < 1 µM |
| < 100 nM | > 10000 nM | > 10000 nM | CN1CCC(Oc2nc(Cn3nc(-c4cn[nH]c4)c4c(N)ncnc43)cc3cccc(Cl)c23)CC1 [Compound 55] | < 0.1 µM |
| < 1000 nM | > 10000 nM | > 10000 nM | CCN1CCC(Oc2nc(Cn3nc(-c4cn[nH]c4)c4c(N)ncnc43)cc3cccc(Cl)c23)CC1 [Compound 56] | < 0.1 µM |
| < 100 nM | > 10000 nM | > 10000 nM | CC(C)N1CCC(Oc2nc(Cn3nc(-c4cn[nH]c4)c4c(N)ncnc43)cc3cccc(Cl)c23)CC1 [Compound 57] | < 0.1 µM |
| < 1000 nM | > 10000 nM | > 10000 nM | CS(=O)(=O)N1CCC(Oc2nc(Cn3nc(-c4cn[nH]c4)c4c(N)ncnc43)cc3cccc(Cl)c23)CC1 [Compound 58] | < 1 µM |
| < 1000 nM | > 10000 nM | > 10000 nM | CC(Nc1ncnc2[nH]cnc12)c1cc2cccc(Cl)c2c(CN2CCN(S(C)(=O)=O)CC2)n1 (centres unmarked) [Compound 59] | < 1 µM |
| < 1000 nM | < 10000 nM | > 10000 nM | C[C@H](Nc1ncnc2[nH]cnc12)c1cc2cccc(Cl)c2c(OC2CCN(S(C)(=O)=O)CC2)n1 [Compound 60] | < 1 µM |
| < 1000 nM | < 10000 nM | > 10000 nM | Cc1cccc2cc([C@H](C)Nc3ncnc4[nH]cnc34)nc(OC3CCN(S(C)(=O)=O)CC3)c12 [Compound 61] | < 1 µM |
| < 1000 nM | < 10000 nM | > 10000 nM | C[C@H](Nc1ncnc2[nH]cnc12)c1cc2cccc(Cl)c2c(N2CCOCC2)n1 [Compound 62] | < 1 µM |
| < 100 nM | < 10000 nM | > 10000 nM | C[C@H](Nc1ncnc2[nH]cnc12)c1cc2cccc(Cl)c2c(N2CCCC2)n1 [Compound 63] | < 1 µM |
| < 100 nM | < 1000 nM | < 10000 nM | C[C@H](Nc1ncnc2[nH]cnc12)c1cc2cccc(Cl)c2c(OCCN2CCOCC2)n1 [Compound 65] | < 0.1 µM |
| < 100 nM | < 1000 nM | < 10000 nM | Nc1ncnc2c1c(-c1cn[nH]c1)nn2Cc1cc2cccc(Cl)c2c(N2CCOCC2)n1 [Compound 66] | < 0.1 µM |
| < 100 nM | < 1000 nM | < 10000 nM | CS(=O)(=O)N1CCN(c2nc(Cn3nc(-c4cn[nH]c4)c4c(N)ncnc43)cc3cccc(Cl)c23)CC1 [Compound 67] | < 1 µM |
| < 100 nM | < 1000 nM | < 10000 nM | Nc1ncnc2c1c(-c1cn[nH]c1)nn2Cc1cc2cccc(Cl)c2c(N2CCCC2)n1 [Compound 68] | < 1 µM |
